Experimental data taken from US20100317620A1, “N-PHENYLIMIDAZO[1,2-a]PYRIDINE-2-CARBOXAMIDE COMPOUNDS, PREPARATION AND THERAPEUTIC USE THEREOF” (sanofi-aventis, priority 2008, published 2010).
Counter-ions that a name gives are not always drawn.

Target: T1, murine Nurr1 receptor (Mus musculus, UniProt Q06219)
T1 construct: a cell line (N2A) endogenously expressing the murine Nurr1 receptor; host or cells: Neuro-2A (N2A) mouse neuroblastoma cells stably transfected with 8NBRE-luciferase
Assay: In vitro activity on N2A cells (8NBRE-luciferase reporter)
Assay type: cell-based
Settings: N2A cell line endogenously expressing murine Nurr1, stably transfected with NBRE-luciferase; 24 hours incubation
Experimental: Evaluation of the In Vitro Activity on N2A Cells
The activity of the compounds according to the invention was evaluated on a cell line (N2A) endogenously expressing the murine Nurr1 receptor and stably transfected with the NOT binding response element (NBRE) coupled to the luciferase reporter gene. The EC50 values are between 0.01 and 1000 nM. The tests were performed according to the procedure described hereinbelow.
The cell line Neuro-2A is obtained from a standard commercial source (ATCC). The clone Neuro-2A was obtained from a spontaneous tumour originating from a strain of albino mice A by R. J Klebe et al. This line Neuro-2A is then stably transfected with 8NBRE-luciferase. The N2A-8NBRE cells are cultured to the point of confluence in 75 cm^2 culture flasks containing DMEM supplemented with 10% foetal calf serum, 4.5 g/L of glucose and 0.4 mg/ml of geneticin. After culturing for one week, the cells are recovered with 0.25% trypsin for 30 seconds and then resuspended in DMEM without phenol red, containing 4.5 g/L of glucose and 10% Hyclone defatted serum, and placed in white, transparent-based 96-well plates. The cells are deposited at a rate of 60 000 per well in 75 μL for 24 hours before adding the products. The products are applied in 25 μL and incubated for a further 24 hours. On the day of measurement, an equivalent volume (100 μL) of Steadylite is added to each well, and the wells are then left for 30 minutes to obtain complete lysis of the cells and maximum production of the signal. The plates are then measured in a microplate luminescence counter, after having been sealed with an adhesive film. The products are prepared in the form of a 10^−2 M stock solution, and then diluted in 100% of DMSO. Each concentration of product is prediluted in culture medium before incubation with the cells thus containing 0.625% final of DMSO.

T1 sequence (Q06219 whole entry): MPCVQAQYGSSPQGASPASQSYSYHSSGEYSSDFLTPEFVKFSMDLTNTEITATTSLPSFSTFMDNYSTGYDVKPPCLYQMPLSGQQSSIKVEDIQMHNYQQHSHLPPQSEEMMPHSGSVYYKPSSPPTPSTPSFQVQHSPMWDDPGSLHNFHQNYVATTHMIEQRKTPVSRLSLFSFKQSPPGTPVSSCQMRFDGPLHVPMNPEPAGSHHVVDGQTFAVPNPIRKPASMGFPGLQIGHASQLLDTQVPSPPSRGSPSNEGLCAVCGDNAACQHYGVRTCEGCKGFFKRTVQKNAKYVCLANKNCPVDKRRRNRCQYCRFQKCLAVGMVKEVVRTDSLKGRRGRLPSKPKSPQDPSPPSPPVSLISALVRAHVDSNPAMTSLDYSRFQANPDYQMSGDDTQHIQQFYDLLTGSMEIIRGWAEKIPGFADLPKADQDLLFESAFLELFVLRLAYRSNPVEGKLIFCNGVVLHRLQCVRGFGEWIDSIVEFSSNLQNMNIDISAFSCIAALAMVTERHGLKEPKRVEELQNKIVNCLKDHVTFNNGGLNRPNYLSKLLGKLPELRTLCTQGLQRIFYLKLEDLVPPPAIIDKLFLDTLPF

EC50 [nM] | Molecule
2 | CSc1ccc2nc(C(=O)Nc3ccccc3)cn2c1 [Example 14, 6-(Methylthio)-N-phenylimidazo[1,2-a]pyridine-2-carboxamide and its hydrobromide (1:1)]
16 | CS(=O)(=O)c1ccc2nc(C(=O)Nc3ccccc3)cn2c1 [Example 16, 6-(Methylsulfonyl)-N-phenylimidazo[1,2-a]pyridine-2-carboxamide and its hydrobromide (1:1)]

Molecule | EC50 [nM]
6-(Isopropylamino)-N-phenylimidazo[1,2-a]pyridine-2-carboxamide and its hydrochloride (1:1) [Example 2] | 1.6
